Experimental data from patent publication US20260165323A1, “USE OF STROBILURIN TYPE COMPOUNDS FOR COMBATING PHYTOPATHOGENIC FUNGI CONTAINING AN AMINO ACID SUBSTITUTION F129L IN THE MITOCHONDRIAL CYTOCHROME B PROTEIN CONFERRING RESISTANCE TO QO […]” (priority 2022, published 2026).

How the values were obtained:
[1] = test system: Drechslera teres (PYRNTE) containing the amino acid substitution F129L in the mitochondrial cytochrome b protein; test: Use example 10: microtest, growth of Drechslera teres (PYRNTE) F129L; format: cell-based; details: relative growth vs compound-free control (100%), 7 days
Protocol: (§1) The active compounds were formulated separately as a stock solution having a concentration of 10000 ppm in dimethyl sulfoxide. The stock solutions were mixed according to the ratio, pipetted onto a micro titer plate (MTP) and diluted with water to the stated concentrations. A spore suspension of one of the following fungal plant pathogens in aqueous bio malt solution • was then added for the respective use example: • Use example 5: Alternaria solani (ALTESO) • Use example 6: Botrytis cinerea (BOTRCI) • Use example 7: Cercospora sojina (CERCSO) • Use example 8: Colletotrichum orbiculare (COLLLA) • Use example 9: Leptosphaeria nodorum (LEPTNO) • Use example 10: Drechslera teres (PYRNTE) containing the amino acid substitution F129L in the mitochondrial cytochrome b protein conferring resistance to Qo inhibitors • Use example 11: Sclerotinia sclerotiorum (SCLESC), solute with ultrasonic from a filter membrane
(§2) The plates were placed in a water vapor-saturated chamber at a temperature of 18° C. Using an absorption photometer, the MTPs were measured at 405 nm 7 days after the inoculation.
(§3) The measured parameters were compared to the growth of the active compound-free control variant (100%) and the fungus-free blank value to determine the relative growth in % of the pathogens in the respective active compounds.

[2] = test system: Botrytis cinerea (BOTRCI); test: Use example 6: microtest, growth of Botrytis cinerea (BOTRCI); format: cell-based; details: relative growth vs compound-free control (100%); for Growth at 8 ppm (%) BOTRCI Use Ex. 6: 7 days after inoculation
Protocol: as §1, §2, §3

[3] = test system: Cercospora sojina (CERCSO); test: Use example 7: microtest, growth of Cercospora sojina (CERCSO); format: cell-based; details: relative growth vs compound-free control (100%); for Growth (%) CERCSO Use Ex. 7 / Growth (%) CERCSO Use ex. 7: 7 days; for Growth (%) CERCSO Use ex. 7: Table 12; for Growth at 31 ppm (%) CERCSO Use ex. 7 / Growth at 8 ppm (%) CERCSO Use ex. 7: 7 days after inoculation
Protocol: as §1, §2, §3

[4] = test system: Leptosphaeria nodorum (LEPTNO); test: Use example 9: microtest, growth of Leptosphaeria nodorum (LEPTNO); format: cell-based; details: relative growth vs compound-free control (100%), 7 days; for Growth at 125 ppm (%) LEPTNO Use ex. 9: Table 10; for Growth (%) LEPTNO Use Ex. 9: 125 ppm, Table 9
Protocol: as §1, §2, §3

[5] = test system: Colletotrichum orbiculare (COLLLA); test: Use example 8: microtest, growth of Colletotrichum orbiculare (COLLLA); format: cell-based; details: relative growth vs compound-free control (100%); for Growth (%) COLLLA Use Ex. 8: 125 ppm; for Growth (%) COLLLA Use Ex. 8 / Growth (%) COLLLA Use ex. 8: 7 days; for Growth (%) COLLLA Use ex. 8: 8 ppm; for Growth at 2 ppm (%) COLLLA Use ex. 8: 7 days after inoculation
Protocol: as §1, §2, §3

Puccinia recondita [6] = test: Use Example 4: preventative control of brown rust on wheat (PUCCRT P7); format: in vivo; details: inoculated seven days after spraying, % diseased leaf area
Summary of the method: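 Preventative test: Puccinia recondita spores dusted onto wheat seedlings seven days after spraying their first two leaves to run-off with the formulated compound. After 24 h humid dark incubation at 20–24 °C and 9–11 days of greenhouse growth at 65–70% RH, infection rated visually as % diseased leaf area.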

Puccinia recondita [7] = test: Use Example 3: curative control of brown rust on wheat (PUCCRT K4); format: in vivo; details: % diseased leaf area
Summary of the method: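 Wheat seedlings inoculated with Puccinia recondita spores, held 24 h at 95–99% RH, 20–24° C in dark, then 3 days in greenhouse before spraying to run-off (curative). Compound in acetone/DMSO–Wettol–water. After 5–7 further days at 20–24° C, 65–70% RH, % diseased leaf area scored visually.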

[8] = test system: Phakopsora pachyrhizi containing the amino acid substitution F129L in the mitochondrial cytochrome b protein; test: Use Example 2: protective control of soybean rust on soybeans (PHAKPA P6); format: in vivo; details: inoculated six days after spraying, % diseased leaf area
Summary of the method: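 Disease was rated visually as % diseased leaf area up to 14 days after inoculation (23–27°C, 60–80% RH). Inoculum was P. pachyrhizi carrying cytochrome b F129L, followed by 24 h in a humid chamber (~95% RH). Inoculation came six days after protective spraying of seedlings with compound in acetone/DMSO–Wettol–water.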

[9] = test system: Phakopsora pachyrhizi containing the amino acid substitution F129L in the mitochondrial cytochrome b protein; test: Use Example 1: protective control of soybean rust on soybeans (PHAKPA P2); format: in vivo; details: inoculated 2 days after spraying, % diseased leaf area
Summary of the method: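 Protective test: plants were inoculated with the F129L cytochrome b rust strain 2 days after spraying to run-off, then held 24 h humid (~95% RH, 20-24° C) and up to 14 days at 23-27° C, 60-80% RH. Readout was visually assessed percent diseased leaf area.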

Row | SMILES | % PUCCRT Disease level P7 at 4 ppm (Puccinia recondita [6]) [%] | % PUCCRT Disease level P7 at 16 ppm (Puccinia recondita [6]) [%] | % PUCCRT Disease level K4 at 4 ppm (Puccinia recondita [7]) [%] | % PUCCRT Disease level K4 at 16 ppm (Puccinia recondita [7]) [%] | % PHAKPA (F129L) Disease level P6 at 4 ppm [8] [%] | % PHAKPA (F129L) Disease level P6 at 16 ppm [8] [%] | % PHAKPA (F129L) Disease level P2 at 4 ppm [9] [%] | % PHAKPA (F129L) Disease level P2 at 16 ppm [9] [%] | other results
1 | CO/C=C(/C(=O)OC)c1cccc(C)c1CO/N=C(\COC)c1cccc(F)c1 [1.2-A-75, reference compound] |  |  |  |  |  |  |  |  | Growth at 8 ppm (%) PYRNTE F129L Use ex. 10 [1]: 34%
2 | COC/C(=N\OCc1c(C)cccc1/C(=N\OC)C(=O)OC)c1ccc(Cl)cc1 [I.1-A-83, reference compound] |  |  |  |  |  |  |  |  | Growth (%) PYRNTE F129L Use Ex. 10 ([1]; 125 ppm, Table 7): 23%; Growth (%) BOTRCI Use Ex. 6 ([2]; 0.5 ppm, 7 days): 53%; Growth (%) CERCSO Use Ex. 7 ([3]; 31 ppm): 83%
3 | COC/C(=N\OCc1c(C)cccc1/C(=N\OC)C(=O)OC)c1ccc(F)cc1 [I.2-A-82, reference compound] |  |  |  |  |  |  |  |  | Growth at 125 ppm (%) LEPTNO Use ex. 9 [4]: 19%
4 | CO/C=C(/C(=O)OC)c1cccc(C)c1CO/N=C(\COC)c1c(F)cc(F)cc1F [I.2-A-43860, reference compound] |  |  |  |  |  |  |  |  | Growth (%) COLLLA Use Ex. 8 [5]: 43%; Growth (%) CERCSO Use Ex. 7 ([3]; 125 ppm, Table 9): 90%; Growth (%) LEPTNO Use Ex. 9 [4]: 64%
5 | CNC(=O)/C(=N/OC)c1cccc(C)c1CO/N=C(\COC)c1ccc(Cl)cc1 [I.3-A-83, reference compound] |  |  |  |  |  |  |  |  | Growth (%) PYRNTE F129L Use ex. 10 ([1]; 125 ppm, Table 12): 26%; Growth (%) CERCSO Use ex. 7 ([3]; 125 ppm): 89%
6 | CNC(=O)/C(=N/OC)c1cccc(C)c1CO/N=C(\COC)c1c(F)cc(F)cc1F [I.3-A-43860, reference compound] |  |  |  |  |  |  |  |  | Growth (%) COLLLA Use ex. 8 [5]: 62%; Growth (%) PYRNTE F129L Use ex. 10 ([1]; 125 ppm, Table 13): 36%
7 | CNC(=O)/C(=N/OC)c1cccc(Cl)c1CO/N=C(\COC)c1ccccc1 [compound 4, (2E)-2-[3-chloro-2-[[(Z)-(2-methoxy-1-phenyl-ethylidene)amino]oxymethyl]phenyl]-2-methoxyimino-N-methyl-acetamide] | 17 | 4 | 77 | 9 |  |  |  |  | Growth at 2 ppm (%) COLLLA Use ex. 8 [5]: 29%
8 | CO/C=C(/C(=O)OC)c1cccc(Br)c1CO/N=C(\COC)c1ccc(F)cc1 [compound 10, Methyl-(E)-2-[3-bromo-2-[[(Z)-[1-(4-fluorophenyl)-2-methoxy-ethylidene]amino]oxymethyl]phenyl]-3-methoxy-prop-2-enoate] | 10 | 2 | 13 | 2 | 8 | 0 | 4 | 0 | Growth at 125 ppm (%) LEPTNO Use ex. 9 [4]: 3%
9 | CO/C=C(/C(=O)OC)c1cccc(Cl)c1CO/N=C(\COC)c1c(F)cc(F)cc1F [compound 12, Methyl-(E)-2-[3-chloro-2-[[(Z)-[2-methoxy-1-(2,4,6-trifluorophenyl)ethylidene]amino]oxymethyl]phenyl]-3-methoxy-prop-2-enoate] | 17 | 9 | 23 | 18 | 4 | 0 | 2 | 0 | Growth (%) COLLLA Use Ex. 8 [5]: 20%
10 | CO/C=C(/C(=O)OC)c1cccc(Cl)c1CO/N=C(\COC)c1cccc(F)c1 [compound 14, Methyl-(E)-2-[3-chloro-2-[[(Z)-[1-(3-fluorophenyl)-2-methoxy-ethylidene]amino]oxymethyl]phenyl]-3-methoxy-prop-2-enoate] | 13 | 2 | 22 | 1 | 2 | 0 | 3 | 0 | Growth at 8 ppm (%) PYRNTE F129L Use ex. 10 [1]: 3%
11 | CO/C=C(/C(=O)OC)c1cccc(F)c1CO/N=C(\COC)c1ccc(F)cc1 [compound 17] | 37 | 8 | 53 | 6 | 17 | 2 | 8 | 0 | Growth at 125 ppm (%) LEPTNO Use ex. 9 [4]: 0%
12 | CNC(=O)/C(=N/OC)c1cccc(Cl)c1CO/N=C(\COC)c1c(F)cc(F)cc1F [compound 31] | 17 | 4 | 40 | 7 | 3 | 0 | 0 | 0 | Growth (%) COLLLA Use ex. 8 [5]: 34%; Growth (%) PYRNTE F129L Use ex. 10 ([1]; 125 ppm, Table 13): 21%
13 | CNC(=O)/C(=N/OC)c1cccc(Cl)c1CO/N=C(\COC)c1ccc(Cl)cc1 [compound 36] | 6 | 0 | 82 | 2 | 57 | 10 | 65 | 3 | Growth (%) PYRNTE F129L Use ex. 10 ([1]; 125 ppm, Table 12): 2%; Growth (%) CERCSO Use ex. 7 ([3]; 125 ppm): 12%
14 | COC/C(=N\OCc1c(Cl)cccc1/C(=N\OC)C(=O)OC)c1cccc(Cl)c1 [compound 37] | 40 | 5 | 75 | 72 | 72 | 39 | 67 | 18 | Growth at 31 ppm (%) CERCSO Use ex. 7 ([3]; 31 ppm): 40%
15 | CNC(=O)/C(=N/OC)c1cccc(Cl)c1CO/N=C(\COC)c1cccc(C(F)(F)F)c1 [compound 56] | 2 | 2 | 8 | 0 | 23 | 0 | 15 | 0 | Growth at 8 ppm (%) BOTRCI Use Ex. 6 [2]: 64%; Growth at 8 ppm (%) CERCSO Use ex. 7 [3]: 13%
16 | CO/C=C(/C(=O)OC)c1cccc(Br)c1CO/N=C(\COC)c1c(F)cc(F)cc1F [compound 58] | 57 | 30 | 27 | 15 | 0 | 0 | 2 | 0 | Growth (%) COLLLA Use Ex. 8 [5]: 26%; Growth (%) CERCSO Use Ex. 7 ([3]; 125 ppm, Table 9): 63%; Growth (%) LEPTNO Use Ex. 9 [4]: 47%
17 | CNC(=O)/C(=N/OC)c1cccc(C)c1CO/N=C(\COC)c1cccc(C(F)(F)F)c1 [reference compound] |  |  |  |  |  |  |  |  | Growth at 8 ppm (%) BOTRCI Use Ex. 6 [2]: 78%; Growth at 8 ppm (%) CERCSO Use ex. 7 [3]: 28%
18 | CNC(=O)/C(=N/OC)c1cccc(C)c1CO/N=C(\COC)c1ccccc1 [reference compound] |  |  |  |  |  |  |  |  | Growth at 2 ppm (%) COLLLA Use ex. 8 [5]: 44%
19 | COC/C(=N\OCc1c(C)cccc1/C(=N\OC)C(=O)OC)c1cccc(Cl)c1 [reference compound] |  |  |  |  |  |  |  |  | Growth at 31 ppm (%) CERCSO Use ex. 7 ([3]; 31 ppm): 60%
